Entries after “also recorded” stand apart in the source; their conditions may differ.
What was measured:
PS1KO blastocysts = experiment: Lysosomal pH measurement with Dextran conjugated Lysosensor Yellow/Blue in PS1KO cells; type: cell-based, Murine; settings: for lysosomal pH after treatment relative to WT lysosomal pH (ANOVA, Dunnet's post-test): PS1KO blastocysts, FIG. 11; for effect on elevated lysosomal pH in PS1KO cells: FIG. 10A/G; for effect on elevated lysosomal pH in PS1KO cells / effect of pretreatment on the action of isoproterenol on lysosomal pH: PS1KO cells; for effect of pretreatment on the action of isoproterenol on lysosomal pH: pretreatment before isoproterenol, FIG. 10F
Method: For results presented in Example 1, quantification of lysosomal pH was determined using Dextran conjugated Lysosensor Yellow/Blue DND-160 (Invitrogen) as follows. Wild Type and PS1KO blastocysts were grown in High Glucose DMEM+15% FBS with antibiotics to ˜90% confluency. Cells were then trypsinized, harvested (1×10^6 cells/ml) and loaded with 1 mg/ml of Lysosensor-dextran for 1 hour at 37° C. with 5% CO2. The cells were then washed 3× in HBSS and aliquoted at […] into a black 96-well microplate. pH calibration was performed according to the protocol established by Diwu et al (Diwu et al., (1999). Chem Biol 6, 411-418). Briefly, wild type and PS1KO blastocysts were treated with 10 μM monensin and 10 uM nigericin in MES buffer (5 mM NaCl, 115 mM KCL, 1.3 mM MgSO4, 25 mM MES), with the pH adjusted to a range from 3.5-7.0. The samples were read in a Wallac Victor 2 fluorimeter (Perkin Elmer) with excitation at 355 nm. The ratio of emission 440/535 nm was then calculated for each sample. The pH values were determined from the linear standard curve generated via the pH calibration samples.
In a more particular embodiment, quantification of lysosomal pH is determined using Dextran conjugated Lysosensor Yellow/Blue (Invitrogen) as follows. 3000 Wild Type and PS1KO blastocysts were seeded in multiple wells of black, clear bottom tissue culture treated 96 well dish and grown in High Glucose DMEM+15% FBS with antibiotics to ˜90% confluency (˜24 hours). 2 ul of 0.5 mg/ml lysosensor-dextran (1:100 dilution of a 5 mg/ml stock) was added and incubated for 1 hour at 37° C. with 5% CO2. The cells were then washed 3× in HBSS. See also methods and results set forth herein below in Example 2. This modified protocol represents an optimized protocol for the purposes set forth herein.
(§1) Quantification of lysosomal pH was determined using Dextran conjugated Lysosensor Yellow/Blue (Invitrogen). 3000 Wild Type and PS1KO blastocysts were seeded in multiple wells of black, clear bottom tissue culture treated 96 well dish and grown in High Glucose DMEM+15% FBS with antibiotics to ˜90% confluency (˜24 hours). 2 ul of 0.5 mg/ml lysosensor-dextran (1:100 dilution of a 5 mg/ml stock) was added and incubated for 1 hour at 37° C. with 5% CO2. The cells were then washed 3× in HBSS.
Performed according to the protocol established by Diwu et al (supra). Briefly, wild type and PS1KO blastocysts were treated with 10 uM monensin and 10 uM nigericin in MES buffer (5 mM NaCl, 115 mM KCL, 1.3 mM MgSO4, 25 mM MES), with the pH adjusted to a range from 3.5-7.0 for 7-10 min prior to lysosensor addition (the additional hour in the buffer seems to have no effect), these cells are not washed in HBSS since permeabilization with ionophores makes them susceptible to detachment.
(§2) The samples were read in a Wallac Victor 2 fluorimeter (Perkin Elmer) with excitation at 355 nm. The ratio of emission 440 nm/535 nm was then calculated for each sample. pH values were determined from the linear std curve generated via the pH calibration samples.

WT and PS1 KO cells = experiment: Intracellular protein degradation (pulse-chase, [3H]-leucine) in WT and PS1 KO blastocysts; type: cell-based, Murine; settings: serum withdrawal, NH4Cl 20 mM, 3MA 10 mM
Method: (§3) Total protein degradation in cultured cells was measured by pulse-chase experiments (Auteri et al., 1983, J Cell Physiol 115, 167-174). Confluent cells were labeled with [^3H]-leucine (2 μCi/ml) for 48 hrs at 37° C. in order to preferentially label long-lived proteins. Following labeling, cells were extensively washed and maintained in complete medium (DMEM+10% fetal bovine serum), under which conditions autophagy is suppressed, or in serum-deprived medium, where autophagy is induced. Under both conditions, after washing the cells, the medium was supplemented with unlabeled 2.8 mM leucine to prevent [^3H]-leucine reincorporation into newly synthesized proteins. Aliquots of the medium taken at different time-points were precipitated with 10% TCA, filtered using a 0.22 μm pore membrane and radioactivity in the flow-through was measured. Proteolysis is expressed as the percentage of the initial acid-precipitable radioactivity (protein) transformed to acid-soluble radioactivity (amino acids and small peptides) over time. To inhibit autophagy in this system, 20 mM NH4Cl or 10 mM 3MA was added immediately after the labeling period and maintained at that concentration throughout the chase. […] Protein synthesis was determined as the incorporation of [^3H]leucine into acid-insoluble material in the presence of an excess (2.8 mM) unlabeled leucine in the medium. […]

LC3-II = LC3-II levels by immunoblot / LC3 puncta in WT and PS1 KO cells; type: cell-based, Murine; settings: 6 hrs
Method: (§4) Immunoblotting was performed as previously described (Yu et al., 2005). Briefly, cells used for Western blot analysis were lysed in buffer containing 50 mM Tris (pH=7.4), 150 mM NaCl, 1 mM EDTA, 1 mM EGTA, 1% Triton X-100 and 0.5% Tween-20 with protease and phosphatase inhibitors. Following electrophoresis on 4-20% gradient gel (Invitrogen), proteins were transferred onto 0.45 μm PVDF membranes (Millipore) and the membrane was incubated overnight in primary antibody then incubated with HRP conjugated secondary antibody. The blot was developed by ECL-kit (GE Healthcare). To assess v-ATPase V0a subunit glycosylation, lysate from WT and PS1KO cells were either treated for 24 hrs at 37° C. with PNGase F or O-glycanase using an enzymatic deglycosylation kit according to the manufacturer's instructions (PROzyme) or with Endo H (New England Biolabs) for 24 hrs at 37° C. Total glycoproteins were isolated using Glycoprotein Isolation Kit, ConA according to the manufacturer's instructions (Thermo Scientific).
Immunocytochemistry was performed as previously described (Yu et al., 2005). Secondary antibodies used were from Invitrogen: goat anti-mouse/rabbit/rat Alexa Fluor 488 and goat anti-mouse/rabbit/rat Alexa Fluor 568. […] Images were analysed using ImageJ program (NIH). […]

WT blastocysts = experiment: Validation of lysosomal pH measurement in WT blastocysts; type: cell-based, Murine; settings: FIG. 9A
Method: as §1
Performed according to the protocol established by Diwu et al (supra). […]
as §2
At the outset, the validity of the method described herein to measure lysosomal pH is confirmed. See, for example, FIG. 9A-D. More particularly, to assess the validity of the method of quantifying lysosomal pH, WT blastocysts were treated with chloroquine (CQ), which is known to elevate lysosomal pH. […]

Cat D = target: T1, Cat D (Mus musculus, UniProt P18242); experiment: Active Cat D labeling with Bodipy-FL-pepstatin A in WT cells; type: cell-based, Murine; settings: NH4Cl
T1 construct: endogenous in cells; host or cells: WT murine blastocyst cells (BD6)
T1 sequence (P18242 65-410): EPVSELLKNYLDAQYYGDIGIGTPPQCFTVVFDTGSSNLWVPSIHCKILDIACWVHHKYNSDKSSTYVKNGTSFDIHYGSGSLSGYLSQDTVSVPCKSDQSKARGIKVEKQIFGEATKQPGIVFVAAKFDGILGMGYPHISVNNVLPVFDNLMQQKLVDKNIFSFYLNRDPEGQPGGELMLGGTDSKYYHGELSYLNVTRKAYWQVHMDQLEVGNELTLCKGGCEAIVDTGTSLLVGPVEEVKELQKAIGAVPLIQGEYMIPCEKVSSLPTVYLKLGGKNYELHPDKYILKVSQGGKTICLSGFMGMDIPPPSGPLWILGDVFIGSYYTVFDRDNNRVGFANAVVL
Method: (§5) Immunocytochemistry was performed as previously described (Yu et al., 2005). Secondary antibodies used were from Invitrogen: goat anti-mouse/rabbit/rat Alexa Fluor 488 and goat anti-mouse/rabbit/rat Alexa Fluor 568. Cells were imaged using a plan-Apochromat 40× or 100×/1.4 oil DIC objective lens on the laser scanning confocal microscope, LSM 510 META, with LSM software v3.5 (Carl Zeiss MicroImaging Inc). Images were analysed using ImageJ program (NIH). Organelles with low internal pH were labeled by LysoTracker DND-99 dye (Invitrogen) at the final 100 nM for 30 min. Following 4% PFA fixation, cells were further counter stained with Cat D, LMAP1, or LC3 antibody for 4 hrs then visualized with Alexa Fluor 488 conjugated secondary antibody. Active Cat D was labeled by adding Bodipy-FL-pepstatin A directly to the medium at a final concentration of 1 μg/ml for 1 hr. Following 4% PFA fixation, cells were counter stained with Cat D antibody for 4 hrs and visualized with Alexa Fluor 568 conjugated secondary antibody. […] Cells were incubated for 30 min with MR-Cathepsin B prior to mounting them under the confocal microscope. To block v-ATPase proton pump activity, ammonium chloride (NH4Cl) was added directly to the medium at a final concentration of 20 mM for 6 hrs prior to LysoTracker addition.

[1] = tested on: PS1-FAD human fibroblasts; experiment: Intracellular protein degradation (pulse-chase) in control and PS1-FAD fibroblasts; type: cell-based; settings: serum withdrawal; NH4Cl treatment
Method: as §3

Cat B [2] = experiment: MR-Cat B signal in WT cells; type: cell-based, Murine; settings: NH4Cl treated WT cells
Method: as §5, with “To block v-ATPase proton pump activity, ammonium chloride (NH4Cl) was added directly to the medium at a final concentration of 20 mM for 6 hrs prior to LysoTracker addition.” left out
(§6) Active Cat D was labeled by adding Bodipy-FL-pepstatin A directly to the medium at a final concentration of 1 mg/ml for 1 hr. […] Cat B staining with MagicRed-Cathepsin B was also measured fluorometrically with a Wallac Victor 2 fluorometer.

Cat B [3] = experiment: Cat B activity by MagicRed-Cathepsin B (MR-Cat B) in PS1KO cells; type: cell-based, Murine; settings: PS1 KO cells
Method: as §5, with “To block v-ATPase proton pump activity, ammonium chloride (NH4Cl) was added directly to the medium at a final concentration of 20 mM for 6 hrs prior to LysoTracker addition.” left out
as §6

[4] = in vivo; cited from earlier work
v-ATPase V0a1 subunit = experiment: v-ATPase V0a1 glycosylation state in WT cells (immunoblot); type: cell-based, Murine; settings: 100-kDa with vs 120-kDa without tunicamycin
Sequence of v-ATPase V0a1 subunit (Q9Z1G4 whole entry): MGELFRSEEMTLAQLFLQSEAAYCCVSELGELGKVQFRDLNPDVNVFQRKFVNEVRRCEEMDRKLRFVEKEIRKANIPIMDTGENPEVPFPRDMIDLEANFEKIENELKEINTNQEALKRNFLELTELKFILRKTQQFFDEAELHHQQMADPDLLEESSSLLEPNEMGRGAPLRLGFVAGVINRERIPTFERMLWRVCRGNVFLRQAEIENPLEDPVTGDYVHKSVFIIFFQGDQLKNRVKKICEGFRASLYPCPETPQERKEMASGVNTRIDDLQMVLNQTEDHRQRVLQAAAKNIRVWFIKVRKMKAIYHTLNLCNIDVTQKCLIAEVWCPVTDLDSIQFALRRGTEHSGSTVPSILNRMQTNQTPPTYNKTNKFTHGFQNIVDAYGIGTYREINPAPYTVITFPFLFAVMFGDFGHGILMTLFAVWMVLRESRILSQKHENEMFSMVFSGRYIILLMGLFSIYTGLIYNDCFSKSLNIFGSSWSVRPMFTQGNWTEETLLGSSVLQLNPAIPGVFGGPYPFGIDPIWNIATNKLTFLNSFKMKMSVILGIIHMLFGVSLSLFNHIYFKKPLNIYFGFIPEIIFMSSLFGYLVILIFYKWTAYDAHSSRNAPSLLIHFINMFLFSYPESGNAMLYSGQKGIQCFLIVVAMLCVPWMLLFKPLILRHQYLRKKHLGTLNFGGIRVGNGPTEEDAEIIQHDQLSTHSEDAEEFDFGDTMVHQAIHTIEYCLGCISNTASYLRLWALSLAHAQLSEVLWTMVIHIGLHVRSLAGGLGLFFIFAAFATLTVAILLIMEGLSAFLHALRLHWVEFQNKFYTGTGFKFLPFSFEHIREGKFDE
Method: as §4

Compound: COc1ccc(C2CNC(=O)C2)cc1OC1CCCC1 (stereo not shown) [rolipram]
- lysosomal pH after treatment relative to WT lysosomal pH (ANOVA, Dunnet's post-test) (PS1KO blastocysts): did not differ significantly from that of WT lysosomal pH
- lysosomal pH after treatment relative to WT lysosomal pH (ANOVA, Dunnet's post-test) (PS1KO blastocysts; listed as Rolipram): did not possess significant difference from WT lysosomal pH
- effect on elevated lysosomal pH in PS1KO cells (PS1KO blastocysts): decreased lysosomal pH

Compound: Cn1cnc(N)c2ncnc1-2 [3-methyladenine]
- increase in proteolysis after serum removal (WT and PS1 KO cells): only the increased proteolysis in WT cells was blocked

Compound: O=S(=O)(NCCNC/C=C/c1ccc(Br)cc1)c1cccc2cnccc12 [H89]
- effect of pretreatment on the action of isoproterenol on lysosomal pH (PS1KO blastocysts): prevent the action of isoproterenol

Compound: CC(=O)N[C@@H](CC(C)C)C(=O)N[C@@H](CC(C)C)C(=O)N[C@H](C=O)CCCNC(=N)N [leupeptin]
- LC3 levels in PS1 KO cells (LC3-II; PS1 KO cells, 0.3 mM): did not increase LC3 levels
- LC3-II levels in WT cells (LC3-II; WT cells, rapamycin acute induction, leupeptin 0.3 mM): significantly elevated LC3-II levels and LC3-positive puncta

Compound: CNC[C@H](O)c1cccc(O)c1 [phenylepherine]
- effect on elevated lysosomal pH in PS1KO cells (PS1KO blastocysts): did not affect lysosomal pH; also recorded: remains unchanged

Compound: COc1cc(/C=C/C(=O)CC(=O)/C=C/c2ccc(O)c(OC)c2)ccc1O [curcumin]
- lysosomal pH after treatment relative to WT lysosomal pH (ANOVA, Dunnet's post-test) (PS1KO blastocysts): reduces lysosomal pH in excess of WT acidity

Compound: CCN(CC)CCCC(C)Nc1ccnc2cc(Cl)ccc12 (stereo not shown) [chloroquine]
- lysosomal pH of WT blastocysts (WT blastocysts): significantly elevated WT lysosomal pH

Compound: Cl.N [NH4Cl, ammonium chloride]
- Bodipy-FL-pepstatin A labeling of Cat D-positive compartments (active Cat D) (Cat D): nearly completely abolished; also recorded: minimal colocalization
- difference in proteolytic rates between control and PS1-FAD fibroblasts [1]: eliminated the difference in proteolytic rates between the two cell groups
- increase in proteolysis after serum removal (WT and PS1 KO cells): entirely blocked the increase of proteolysis in both cell types
- MR-Cat B signal (Cat B [2]): minimal

Compound: Oc1ccc(C=Cc2cc(O)cc(O)c2)cc1 [resveratrol]
- active Cat B in PS1 KO cells (Cat B [3]): partially restoring active Cat B

Compound: CC(C)(C)NCC(O)c1cc(Cl)c(N)c(Cl)c1 (stereo not shown) [clenbuterol]
- crossing of the blood brain barrier (BBB) [4]: cross the blood brain barrier
- consequences on lysosomal pH and autophagy in PS1-deleted cells (PS1KO blastocysts; PS1-deleted cells, clinically relevant concentrations): desired consequences on lysosomal pH and autophagy
- lysosomal pH after treatment relative to WT lysosomal pH (ANOVA, Dunnet's post-test) (PS1KO blastocysts): did not possess significant difference from WT lysosomal pH; also recorded: did not differ significantly from that of WT lysosomal pH
- effect on elevated lysosomal pH in PS1KO cells (PS1KO blastocysts): normal levels or even hyperacidic levels; also recorded: restored to WT levels

Compound: tunicamycin
- gel mobility of v-ATPase V0a1 subunit (v-ATPase V0a1 subunit): increase in mobility

Compound: C=CCc1ccccc1OCC(O)CNC(C)C (stereo not shown) [alprenolol]
- effect on elevated lysosomal pH in PS1KO cells (PS1KO blastocysts): did not affect lysosomal pH; also recorded: remains unchanged

Compound: CC(C)NCC(O)COc1cccc2ccccc12 (stereo not shown) [propranol]
- effect of pretreatment on the action of isoproterenol on lysosomal pH (PS1KO blastocysts): prevent the action of isoproterenol

— patent publication US9265735B2, “Methods for screening to identify therapeutic agents for Alzheimer's disease and use thereof” (New York University, priority 2010, dated 2016)
